# Experimental data taken from patent US12527774B2, “Estrogen-related receptor alpha modulators” (LEAD PHARMA HOLDING B.V., priority 2019, dated 2026).
# Assays:
# full length ERRα = full length ERRα (Homo sapiens (Human), UniProt P11474); assay: Full Length ERRα Reporter Gene Assay; type: cell-based; conditions: SK-BR-3 cells, ERRα-RE luciferase reporter, overnight incubation; for IC50: read-out: mean pIC50 (converted)
# Excerpt: Full Length ERRα Reporter Gene Assay
# A method was established to quantitatively screen the potency of compounds with inverse agonistic activity on the nuclear receptor ERRα of the human species. The assay allows intra-cellular screening of ERRα inverse agonists in SK-BR-3 cells using an over-expression construct coding full length ERRα and a reporter construct containing an ERRα Response Element (RE) and a luciferase gene for read out. The activity is expressed in log IC50 values and can be used to determine SAR of compound families or to de-select compounds.
# In this assay, reporter cells are obtained by transient co-transfection of two constructs in SK-BR-3 cells using standard transfection techniques. The first construct contains a response element of the nuclear receptor ERRα (Plasmid pLP2175, Reporter construct ERRα-RE/luc2P, cloned variant of ERRα_v2_synthRE, Switchgear Genomics, Catalog Number S900089). This sequence drives the transcription of the luciferase reporter gene in response to binding of an ERRα protein encoded by the second construct (Plasmid pLP2124: full length ERRα expression construct using pcDNA3.1/Hygro(+) as background, Invitrogen Catalog Number V87020).
# The day after transfection, cells were plated into 96 well plates, test compound was added and the plates were incubated overnight. Subsequently, the firefly luciferase activity was quantified using luciferase detection reagent and luminescence readout.
# Detailed Assay Description
# Transfection is performed on pre-seeded SK-BR-3 cells in a T175 flask. One transfected T175 flask is sufficient for seeding 3 to 4 MW96 plates the next day, depending on the confluency of the transfected cells.
# Two different media are used in this protocol for cell treatment: 1) Culture medium, i.e. McCoy's 5a with phenol red (BioWhittaker Supplier Number 12-688F), 10% FBS and 1× Penstrep.; and, 2) Assay medium, i.e. McCoy's 5a Medium phenol red free (HyClone Product Code SH30270.01) with 2% Charcoal Stripped FBS and 1× Penstrep. Compound dilutions are prepared in assay medium.
# Cells are seeded at least 2 days in advance to allow the cells to adhere well to flask before transfection. Cells should be 50-80% confluent at the day of transfection.
# SKBR3 cells were transfected with the transcriptional reporter construct pLP2175 and the ERRα expression construct pLP2124 (as described above).
# 68 μL of Lipofectamine LTX transfection reagent (Invitrogen Catalog Number 15338-100) was added dropwise to 8.9 ml Opti-MEM I Reduced Serum Medium (Gibco Catalog Number 51985-026) and incubated at room temperature for 5 to 20 minutes. 8.9 ml of this reagent mixture was added to 22 μg pLP2175+22 μg pLP2124 (ratio 1:1 and total volume 10 ml), and incubated at room temperature for 25 minutes.
# 10 minutes before adding the transfection mix to SKBR3 cells in a T175 flask, the culture medium was refreshed with 20 mL culture medium. Subsequently, the 10 mL DNA-Opti-MEM-Lipofectamine mixture was gently added to the cells, followed by overnight (16-24 hours) incubation at 37° C. and 5% CO2.
# To harvest SKBR3 cells from a T175 flask, first the medium was removed. Subsequently, cells were washed with Phosphate Buffered Saline (PBS) (Lonza), after which the PBS was removed. To dissociate the cells, 2 ml of TrypLE Express (Invitrogen) was added to the flask, followed by incubation at 37° C. for 5 minutes. The flask was tapped until cells were detached from the bottom. Cells were collected in 8 mL of culture medium (McCoy's 5α, 10% FBS, penstrep), to achieve a single cell suspension. After cell count, cells were spun down for 5 minutes at 300 g. Next cell pellets were re-suspended to 25000 cells/80 μl assay medium (McCoy's 5a phenol red free, 2% charcoal stripped FBS, penstrep).
# For compound screening, the cells were harvested (as described above). 80 μL of cell suspension (25,000 cells) was plated per well into a white, flat bottom, tissue culture treated, 96 well screening plates (Greiner). […]
# [1] = target: ERRα ligand binding domain (ERRα-LBD) (Homo sapiens (Human), UniProt P11474); assay: ERRα AlphaScreen Assay; type: biochemical; conditions: disruption of binding of ERRα-LBD protein to biotin-PGC1α-3 co-activator peptide; for IC50: read-out: mean pIC50 (converted)
# Chain of ERRα ligand binding domain (ERRα-LBD) (P11474 193-421): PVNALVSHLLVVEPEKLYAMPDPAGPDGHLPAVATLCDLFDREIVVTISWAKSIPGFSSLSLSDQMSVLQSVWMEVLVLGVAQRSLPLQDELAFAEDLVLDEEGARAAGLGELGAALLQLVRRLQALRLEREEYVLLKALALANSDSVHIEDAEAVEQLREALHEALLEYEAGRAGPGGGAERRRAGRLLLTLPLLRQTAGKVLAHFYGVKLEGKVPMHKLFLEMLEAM
# Outline: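 Disruption of co-activator binding read by AlphaScreen: compounds in triplicate, 1% DMSO, Tris pH 7.5 buffer, room temperature. Bacterially expressed 6His-SUMO-ERRα-LBD at 0.81 nM with beads for 1 h, then 15 nM biotinylated PGC1α peptide for 2 h. IC50 from four-parameter fits, averaged as pIC50.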
# Chain of full length ERRα (P11474 whole entry): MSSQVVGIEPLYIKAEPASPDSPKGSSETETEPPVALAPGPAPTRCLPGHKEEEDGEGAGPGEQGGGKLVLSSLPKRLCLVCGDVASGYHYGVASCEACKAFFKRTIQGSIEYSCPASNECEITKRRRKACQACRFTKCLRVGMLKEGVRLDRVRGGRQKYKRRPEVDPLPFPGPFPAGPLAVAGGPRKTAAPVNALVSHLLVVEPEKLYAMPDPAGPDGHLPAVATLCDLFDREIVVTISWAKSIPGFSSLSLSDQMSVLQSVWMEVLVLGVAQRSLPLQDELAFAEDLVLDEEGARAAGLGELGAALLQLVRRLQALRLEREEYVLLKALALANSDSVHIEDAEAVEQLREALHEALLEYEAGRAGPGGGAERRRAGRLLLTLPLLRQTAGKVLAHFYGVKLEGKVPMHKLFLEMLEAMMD
SMILES,IC50 (full length ERRα) [nM],IC50 [1] [nM],mean pIC50 (full length ERRα),mean pIC50 [1]
"COc1cc(C2CC(=O)Nc3n[nH]cc32)ccc1OCc1ccc(CCO)cc1C(F)(F)F (single isomer, unassigned; (+)) [Example 211, (+)-4-(4-{[4-(2-hydroxyethyl)-2-(trifluoromethyl)phenyl]methoxy}-3-methoxyphenyl)-2H,4H,5H,6H,7H-pyrazolo[3,4-b]pyridin-6-one]",≤ 316,10 to 100,,
"COc1cc(C2CC(=O)Nc3n[nH]cc32)ccc1OCc1ccc(C(C)=O)cc1C(F)(F)F (single isomer, unassigned; (-)) [Example 200, (−)-4-(4-{[4-acetyl-2-(trifluoromethyl)phenyl]methoxy}-3-methoxyphenyl)-2H,4H,5H,6H,7H-pyrazolo[3,4-b]pyridin-6-one]",≤ 316,,,
"COc1ccc(COc2ccc(C3CC(=O)Nc4[nH]nnc43)cc2OC)c(C(F)(F)F)c1 (single isomer, unassigned; (-)) [Example 202, (−)-7-(3-methoxy-4-{[4-methoxy-2-(trifluoromethyl)phenyl]methoxy}phenyl)-3H,4H,5H,6H,7H-[1,2,3]triazolo[4,5-b]pyridin-5-one]",≤ 316,,,
"COc1cc(C2CC(=O)Nc3n[nH]cc32)ccc1OCc1ccc(CCO)cc1C(F)(F)F (single isomer, unassigned; (-)) [Example 212, (−)-4-(4-{[4-(2-hydroxyethyl)-2-(trifluoromethyl)phenyl]methoxy}-3-methoxyphenyl)-2H,4H,5H,6H,7H-pyrazolo[3,4-b]pyridin-6-one]",,,≥ 6.5,
"COc1cc(C2CC(=O)Nc3n[nH]cc32)ccc1COc1ccc(C)cc1C(F)(F)F (single isomer, unassigned; (-)) [Example 214, (−)-4-(3-methoxy-4-{[4-methyl-2-(trifluoromethyl)phenoxy]methyl}phenyl)-2H,4H,5H,6H,7H-pyrazolo[3,4-b]pyridin-6-one]",≤ 316,,,≥ 8
"COc1cc(C2CC(=O)Nc3n[nH]cc32)ccc1OCc1ccccc1C(F)(F)F (stereo not drawn) [Example 1, 4-(3-methoxy-4-{[2-(trifluoromethyl)phenyl]methoxy}phenyl)-2H,4H,5H,6H, 7H-pyrazolo[3,4-b]pyridin-6-one]",≤ 316,,,≥ 8
"COc1cc(C2CC(=O)Nc3n[nH]cc32)ccc1OCc1ccc(C(F)(F)F)cc1C(F)(F)F (stereo not drawn) [Example 8, 4-(4-{[2,4-bis(trifluoromethyl)phenyl]methoxy}-3-methoxyphenyl)-2H,4H,5H,6H, 7H-pyrazolo[3,4-b]pyridin-6-one]",≤ 316,,,≥ 8
"COc1cc(C2CC(=O)Nc3n[nH]cc32)ccc1OCc1ccccc1OC(F)(F)F (stereo not drawn) [Example 24, 4-(3-methoxy-4-{[2-(trifluoromethoxy)phenyl]methoxy}phenyl)-2H,4H,5H,6H,7H-pyrazolo[3,4-b]pyridin-6-one]",≤ 316,,,≥ 8
"COc1cc(C2CC(=O)Nc3n[nH]cc32)ccc1OCc1cc(C)ccc1C(F)(F)F (stereo not drawn) [Example 32, 4-(3-methoxy-4-{[5-methyl-2-(trifluoromethyl)phenyl]methoxy}phenyl)-2H,4H,5H,6H,7H-pyrazolo[3,4-b]pyridin-6-one]",≤ 316,,,≥ 8
"COC(=O)C1C(=O)Nc2n[nH]cc2C1c1ccc(COc2ccc(C(F)(F)F)cc2C(F)(F)F)c(OC)c1 (stereo not drawn) [Example 187, methyl 4-(4-{[2,4-bis(trifluoromethyl)phenoxy]methyl}-3-methoxyphenyl)-6-oxo-2H,4H,5H,6H, 7H-pyrazolo[3,4-b]pyridine-5-carboxylate]",,100 to 1000,,
"COc1cc(C2CC(=O)Nc3c[nH]cc32)ccc1COc1ccc(C(F)(F)F)cc1C(F)(F)F (stereo not drawn) [Example 190, 4-(4-{[2,4-bis(trifluoromethyl)phenoxy]methyl}-3-methoxyphenyl)-1H,2H,3H,4H, 6H-pyrrolo[3,4-b]pyridin-2-one]",,10 to 100,,

# Continued, values first:
IC50 (full length ERRα) [nM],IC50 [1] [nM],mean pIC50 (full length ERRα),mean pIC50 [1],SMILES
≤ 316,,,,"CCc1ccc(COc2ccc(C3CC(=O)Nc4n[nH]cc43)cc2OC)c(C(F)(F)F)c1 (single isomer, unassigned; (+)) [Example 207, (+)-4-(4-{[4-ethyl-2-(trifluoromethyl)phenyl]methoxy}-3-methoxyphenyl)-2H,4H,5H,6H,7H-pyrazolo[3,4-b]pyridin-6-one]"
≤ 316,,,,"COc1ccc(COc2ccc(C3CC(=O)Nc4n[nH]cc43)cc2OC)c(C(F)(F)F)c1 (single isomer, unassigned; (-)) [Example 198, (−)-4-(3-methoxy-4-{[4-methoxy-2-(trifluoromethyl)phenyl]methoxy}phenyl)-2H,4H,5H,6H,7H-pyrazolo[3,4-b]pyridin-6-one]"
≤ 316,10 to 100,,,"COc1cc(C2CC(=O)Nc3n[nH]cc32)ccc1OCc1ccc(F)cc1C(F)(F)F (stereo not drawn) [Example 9, 4-(4-{[4-fluoro-2-(trifluoromethyl)phenyl]methoxy}-3-methoxyphenyl)-2H,4H,5H,6H, 7H-pyrazolo[3,4-b]pyridin-6-one]"
≤ 316,,,≥ 8,"COc1cc(C2CC(=O)Nc3n[nH]cc32)ccc1OCc1ccc(Cl)cc1C(F)(F)F (stereo not drawn) [Example 15, 4-(4-{[4-chloro-2-(trifluoromethyl)phenyl]methoxy}-3-methoxyphenyl)-2H,4H,5H,6H, 7H-pyrazolo[3,4-b]pyridin-6-one]"
≤ 316,,,≥ 8,"COc1ccc(COc2ccc(C3CC(=O)Nc4n[nH]cc43)cc2OC)c(C(F)(F)F)c1 (stereo not drawn) [Example 19, 4-(3-methoxy-4-{[4-methoxy-2-(trifluoromethyl)phenyl]methoxy}phenyl)-2H,4H,5H,6H,7H-pyrazolo[3,4-b]pyridin-6-one]"
,,,≥ 8,"COc1cc(-c2cc(=O)[nH]c3n[nH]cc23)ccc1OCc1ccccc1OC(F)F [Example 180, 4-(4-{[2-(difluoromethoxy)phenyl]methoxy}-3-methoxyphenyl)-2H,6H, 7H-pyrazolo[3,4-b]pyridin-6-one]"
,10 to 100,,,"COc1cc(-c2cc(=O)[nH]c3n[nH]cc23)ccc1OCc1ccc(C#N)cc1C(F)(F)F [Example 181, 4-[(2-methoxy-4-{6-oxo-2H,6H, 7H-pyrazolo[3,4-b]pyridin-4-yl}phenoxy)methyl]-3-(trifluoromethyl)benzonitrile]"
,10 to 100,,,"COc1ccc([N+](=O)[O-])cc1COc1ccc(-c2cc(=O)[nH]c3n[nH]cc23)cc1OC [Example 182, 4-{3-methoxy-4-[(2-methoxy-5-nitrophenyl)methoxy]phenyl}-2H,6H,7H-pyrazolo[3,4-b]pyridin-6-one]"
,100 to 1000,,,"COc1cc(-c2cc(=O)[nH]c3n[nH]cc23)ccc1OCc1ccccc1 [Example 183, 4-[4-(benzyloxy)-3-methoxyphenyl]-2H,6H, 7H-pyrazolo[3,4-b]pyridin-6-one]"
,100 to 1000,,,"COc1cc(Br)c(COc2ccc(-c3cc(=O)[nH]c4n[nH]cc34)cc2OC)cc1OC [Example 184, 4-{4-[(2-bromo-4,5-dimethoxyphenyl)methoxy]-3-methoxyphenyl}-2H,6H, 7H-pyrazolo[3,4-b]pyridin-6-one]"
